Source: patent publication US6410733B1, “Amidine inhibitors of serine proteases” (Genentech, Inc., priority 2000, dated 2002)

Molecular target: human Factor Xa (Homo sapiens, UniProt P00742)
Experiment: Factor Xa assay
Type: biochemical
Set-up: This complex converts factor X to Xa; purchased Hematologic Technologies
Conditions: 3.3 nM Xa, S-2222 0.5 mM; read-out: binding affinity to serine proteases: Xa (constant of inhibition Ki)
Procedure: These procedures are used to determine the constant of inhibition (Ki) for a sample compound of the invention.
Coagulation Factor: human Factor Xa, Thrombin, or Plasma Kallikrein (Hematologic Technologies) Dilute to 0.45 μg/mL (9.8 nM) in assay buffer.
Substrate: S-2222, S2366 or S2302—(See below—Chromogenix Inc,) Reconstitute at 5 mM in H2O. Dilute to 1.5 mM in assay buffer prior to use.
Samples: Dilute samples to 3% DMSO in assay buffer.
1. Add 50 μL sample to each well.
2. Add 50 μL appropriately diluted coagulation factor to each well.
3. Incubate for 5 minutes at room temperature with gentle agitation.
4. Add 50 μL appropriately diluted substrate to each well.
5. Agitate plate for 20-25 sec.
6. Monitor absorbance at 405 nm every 10 sec for a total of 5 minutes at room temperature.
7. Calculate Vmax over 10 points.

Sequence of human Factor Xa (P00742 235-488 limits assumed): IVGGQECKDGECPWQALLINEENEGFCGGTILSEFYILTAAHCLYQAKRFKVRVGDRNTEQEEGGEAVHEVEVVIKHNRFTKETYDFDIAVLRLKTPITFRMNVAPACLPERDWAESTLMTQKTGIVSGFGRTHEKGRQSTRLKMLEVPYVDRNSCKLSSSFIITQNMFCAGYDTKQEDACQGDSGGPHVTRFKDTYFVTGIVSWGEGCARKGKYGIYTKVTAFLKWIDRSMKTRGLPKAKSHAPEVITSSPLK
Sequence of human Factor Xa (P00742 41-179 limits assumed): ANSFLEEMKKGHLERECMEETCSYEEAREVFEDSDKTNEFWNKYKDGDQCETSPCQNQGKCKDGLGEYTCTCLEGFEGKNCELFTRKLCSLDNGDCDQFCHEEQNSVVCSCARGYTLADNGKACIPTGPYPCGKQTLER

## C[C@@H](NC(=O)[C@@H]1C[C@@H](Oc2cccc(C(=N)N)c2)CN1)c1ccccc1 [compound 26]
  Ki: 114 µM
